From patent publication US20230135894A1, “MK2 DEGRADERS AND USES THEREOF” (Kymera Therapeutics, Inc., priority 2021, published 2023)

Key:
MK2 [1] = target: T1, MK2 (Homo sapiens, UniProt P49137); assay: MK2 degradation in human THP-1 monocytic cells (MSD, 24 h); assay type: cell-based; design: endogenous in cells; key to MK2 MSD THP-1 degradation 24 h GMean External Abs DC50: A (<0.001 μM); B (0.001-0.01 μM); C (0.01-0.1 μM); D (>0.1 μM); —: “-”=not tested or inactive; settings: for Dmax: THP-1, THP-1 cells; for DC50 / MK2 MSD THP-1 degradation 24 h GMean External Abs DC50: THP-1 cells; for DC50: read-out: MK2 MSD THP-1 degradation 24 h GMean External Abs DC50
Outline: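 Readout: residual MK2 protein in THP-1 lysates, measured by MSD electrochemiluminescence sandwich assay after 24 h compound exposure (≤10-point serial dilutions, 0.1% DMSO, 37 °C). Curves normalised between lysis-buffer and DMSO-cell signals; DC50 by 4-parameter logistic fit.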

MK2 [2] = target: T1, MK2; assay: MK2 degradation in human SW1353 cells (MSD, 24 h); assay type: cell-based; design: endogenous in cells; host or cells: SW-1353 (ATCC HTB-94); key to MK2 MSD SW1353 degradation 24 h GMean External Abs DC50: A (<0.001 μM); B (0.001-0.01 μM); C (0.01-0.1 μM); D (>0.1 μM); —: “-”=not tested or inactive; settings: for Dmax: read-out: MK2 MSD SW 1353 24 h Dmax %; for DC50: read-out: MK2 MSD SW1353 degradation 24 h GMean External Abs DC50
Outline: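 DC50 derived by 4-parameter logistic fit, with DMSO-treated signal as top and lysis-buffer signal as bottom. Remaining MK2 was measured by MSD electrochemiluminescent sandwich assay in RIPA lysates of human SW1353 cells exposed for 24 h at 37 °C to serially diluted compound in 0.1% DMSO.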

T1 sequence (P49137 whole entry): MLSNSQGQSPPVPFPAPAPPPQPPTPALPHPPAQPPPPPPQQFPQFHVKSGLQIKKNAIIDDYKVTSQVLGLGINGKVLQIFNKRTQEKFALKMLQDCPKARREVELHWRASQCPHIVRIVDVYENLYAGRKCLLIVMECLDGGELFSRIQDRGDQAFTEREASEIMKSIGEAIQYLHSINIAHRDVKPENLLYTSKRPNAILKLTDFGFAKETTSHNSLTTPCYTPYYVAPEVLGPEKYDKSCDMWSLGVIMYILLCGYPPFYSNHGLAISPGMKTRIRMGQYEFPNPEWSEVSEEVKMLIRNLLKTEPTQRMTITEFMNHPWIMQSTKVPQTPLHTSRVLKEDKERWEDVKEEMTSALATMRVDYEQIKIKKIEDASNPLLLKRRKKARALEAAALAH

Row | SMILES | Dmax (MK2 [1]) | DC50 (MK2 [1]) | Dmax (MK2 [2]) | DC50 (MK2 [2]) | MK2 MSD THP-1 degradation 24 h GMean External Abs DC50 (MK2 [1]) | MK2 MSD SW1353 degradation 24 h GMean External Abs DC50 (MK2 [2])
1 | C[C@@H]1CNc2c(sc3ccc4nc(-c5ccc(N6CCN(CCCCCCCCc7ccc8c(c7)n(C)c(=O)n8C7CCC(=O)NC7=O)CC6)cc5)ccc4c23)C(=O)N1 (stereo partly drawn) [Compound I-175] | > 75% | 1 to 10 nM | > 75% | 1 to 10 nM |  | 
2 | Cn1c(=O)n(C2CCC(=O)NC2=O)c2ccc(C3CCN(CC4CCN(c5ccc(-c6cc(-c7cc8c([nH]7)CCNC8=O)ccn6)c(F)c5)CC4)CC3)cc21 (stereo not drawn) [Compound I-305] | > 75% | < 1 nM | > 75% | < 1 nM |  | 
3 | O=C1CCN(c2cncc3c(N4CC(CN5CCN(c6ccc(-c7cc(-c8cc9c([nH]8)C8(CC8)CNC9=O)ccn7)cc6)CC5)C4)cccc23)C(=O)N1 [Compound I-188] | > 75% | 1 to 10 nM | > 75% | 1 to 10 nM |  | 
4 | C[C@@H]1CNc2c(sc3ccc4nc(-c5cc(N6CCN(CCCCCCCCc7cccc8c7n(C)c(=O)n8C7CCC(=O)NC7=O)CC6)ccc5F)ccc4c23)C(=O)N1 (stereo partly drawn) [Compound I-286] | 50 to 75% | 10 to 100 nM | > 75% | 10 to 100 nM |  | 
5 | C[C@@H]1CNc2c(sc3ccc4nc(-c5ccc(N6CCN(CCCCOc7ccc(C8CCC(=O)NC8=O)cc7)CC6)nc5)ccc4c23)C(=O)N1 (stereo partly drawn) [Compound I-183] | > 75% |  | > 75% |  | — | —
6 | C[C@@H]1CNc2c(sc3ccc4nc(-c5cccc(N6CCC(CN7CCN(c8cccc9c(N%10CCC(=O)NC%10=O)cncc89)CC7)CC6)c5)ccc4c23)C(=O)N1 [Compound I-310] | > 75% | 1 to 10 nM | > 75% | 1 to 10 nM |  | 
7 | CCc1cc(-c2cc(-c3cc4c([nH]3)C3(CC3)CNC4=O)ccn2)cc(CC)c1N1CCN(CC2CCN(c3ccc4c(c3)n(C)c(=O)n4C3CCC(=O)NC3=O)CC2)CC1 (stereo not drawn) [Compound I-448] | < 50% | > 100 nM | 50 to 75% | 1 to 10 nM |  | 
8 | C[C@@H]1CNc2c(sc3ccc4nc(-c5cncc(N6CCN(CCCCCc7cccc8c7n(C)c(=O)n8C7CCC(=O)NC7=O)CC6)c5)ccc4c23)C(=O)N1 (stereo partly drawn) [Compound I-156] | > 75% | < 1 nM | > 75% | < 1 nM |  | 
9 | C[C@@H]1CNc2c(sc3ccc4nc(-c5cccc(N6CCC(CN7CCC(c8cccc9c(N%10CCC(=O)NC%10=O)cncc89)CC7)CC6)c5)ccc4c23)C(=O)N1 [Compound I-312] | > 75% | 1 to 10 nM | > 75% | 1 to 10 nM |  | 
10 | C[C@@H]1CNc2c(sc3ccc4nc(-c5ccc(N6CCN(C7CC(c8cccc9c8n(C)c(=O)n9C8CCC(=O)NC8=O)C7)CC6)cc5)ccc4c23)C(=O)N1 (stereo partly drawn) [Compound I-246] | > 75% | < 1 nM | > 75% | < 1 nM |  | 
11 | C[C@@H]1CNc2c(sc3ccc4nc(-c5cccc(C#CCCNC(=O)CCCCCCCCCc6ccc7c(c6)n(C)c(=O)n7C6CCC(=O)NC6=O)c5)ccc4c23)C(=O)N1 (stereo partly drawn) [Compound I-45] | > 75% | 10 to 100 nM | > 75% | 10 to 100 nM |  | 
12 | Cn1c(=O)n(C2CCC(=O)NC2=O)c2ccc(N3CCC(CN4CCN(c5ccc(-c6cc(-c7cc8c([nH]7)C7(CCC7)CNC8=O)ccn6)cn5)CC4)CC3)cc21 (stereo not drawn) [Compound I-213] | > 75% | < 1 nM | > 75% | < 1 nM |  | 
13 | C[C@@H]1CNc2c(sc3ccc4nc(-c5cccc(N6CCN(C(=O)COCCOCCc7cccc8c7n(C)c(=O)n8C7CCC(=O)NC7=O)CC6)c5)ccc4c23)C(=O)N1 (stereo partly drawn) [Compound I-34] | > 75% | < 1 nM | > 75% | < 1 nM |  | 
14 | Cn1c(=O)n(C2CCC(=O)NC2=O)c2cccc(CCCCCCN3CCC4(CC3)CNC(=O)c3c4[nH]c4c3CCc3cnc(-c5ccccc5F)cc3-4)c21 (stereo not drawn) [Compound I-300] | < 50% | > 100 nM | < 50% | > 100 nM |  | 

Further lines, results first:

Row | Dmax (MK2 [1]) | DC50 (MK2 [1]) | Dmax (MK2 [2]) | DC50 (MK2 [2]) | MK2 MSD THP-1 degradation 24 h GMean External Abs DC50 (MK2 [1]) | MK2 MSD SW1353 degradation 24 h GMean External Abs DC50 (MK2 [2]) | SMILES
15 | > 75% |  | > 75% |  |  |  | COc1cc(-c2ccc3c(ccc4sc5c(c43)NC[C@@H](C)NC5=O)n2)c(F)cc1N1CCN(CC2CCN(c3ccc4c(c3)n(C)c(=O)n4C3CCC(=O)NC3=O)CC2)CC1 (stereo partly drawn) [Compound I-180]
16 | > 75% | < 1 nM | > 75% | < 1 nM |  |  | C[C@@H]1CNc2c(sc3ccc4nc(-c5ccc(N6CCC(CN7CCC(c8ccc9c(c8)n(C)c(=O)n9C8CCC(=O)NC8=O)CC7)CC6)cc5F)ccc4c23)C(=O)N1 (stereo partly drawn) [Compound I-297]
17 | > 75% | < 1 nM | > 75% | 1 to 10 nM |  |  | C[C@@H]1CNc2c(sc3ccc4nc(-c5cccc(N6CCN(CCN7CCC(CCc8cccc9c8n(C)c(=O)n9C8CCC(=O)NC8=O)CC7)CC6)c5)ccc4c23)C(=O)N1 (stereo partly drawn) [Compound I-105]
18 | 50 to 75% |  | > 75% | < 1 nM | — |  | C[C@@H]1CNc2c(sc3ccc4nc(-c5ccc(N6CCN(CCOc7ccc8c(c7)n(C)c(=O)n8C7CCC(=O)NC7=O)CC6)cc5)ccc4c23)C(=O)N1 (stereo partly drawn) [Compound I-215]
19 | > 75% | 1 to 10 nM | > 75% | < 1 nM |  |  | C[C@@H]1CNc2c(sc3ccc4nc(N5CCC(N6CCC7(CCN(c8ccc9c(c8)n(C)c(=O)n9C8CCC(=O)NC8=O)CC7)CC6)CC5)ccc4c23)C(=O)N1 (stereo partly drawn) [Compound I-395]
20 | < 50% | > 100 nM | < 50% | > 100 nM |  |  | C[C@@H]1CNc2c(sc3ccc4nc(N5CCC6(CCN(CC7CCN(c8ccc9c(c8)n(C)c(=O)n9C8CCC(=O)NC8=O)CC7)CC6)CC5)ccc4c23)C(=O)N1 (stereo partly drawn) [Compound I-389]
